Reference: patent publication US20140094413A1, “HEPATOCYTE GROWTH FACTOR (HGF) MIMICS AS THERAPEUTIC AGENTS” (WASHINGTON STATE UNIVERSITY, priority 2012, published 2014)
Where “and” joins values, the source holds several entries; their conditions need not be identical. Identical values can stand only once. Entries after “also recorded” stand apart in the source; their conditions may differ. Where a SMILES comes first, the peptide text is derived from it. [ ]: non-standard residue; d: D form. The star is where a group is joined. Nle = CCCC[C@H](N)C(=O)O; Hexanoyl = CCCCCC(=O)*; Ahx = NCCCCCC(=O)O

What was measured:
c-Met receptor = test: c-Met phosphorylation in acute adult rat hippocampal slices; format: cell-based; conditions: 30 minutes
Description: Adult Sprague-Dawley rats (250 g+) obtained from Harlan Laboratories (Ca, USA) were anesthetized with isofluorane (Vet One™, MWI, Meridian, Id., USA) and decapitated. The brain was rapidly removed and placed into ice-chilled artificial cerebrospinal fluid (aCSF) for approximately 30 s. Both hemispheres were separated by a mid-saggital cut and both hippocampi removed. Slices were sectioned cross- and length-wise (400 μm) to ensure penetrability of the drug, using a McIlwain tissue chopper (Brinkmann, Gomshall, UK) and transferred to a gassed (95% O2/5% CO2) incubation chamber containing aCSF for 90 minutes at room temperature. Slices were transferred to fresh tubes, aCSF was removed by careful suctioning and replaced with aCSF containing vehicle (aCSF+aCSF), 100 ng/ml with carrier free adult recombinant Hepatocyte Growth Factor (HGF) (R and D Systems, MN, USA) in aCSF, 10^−10 M Hinge (Harding lab), […], 10^−10 M Dihexa (Harding lab) in aCSF, 10^−12 M Dihexa in aCSF or 50 ng/ml HGF+10^−12 M Dihexa in aCSF for 30 minutes at 37° C. with gentle rocking. aCSF was removed and the slices were lysed using RIPA buffer (Upstate/Milipore, Billerica, Mass.) and inhibitor Cocktails I and II (Sigma, St. Louis, Mo.), sonicated on ice and clarified by centrifugation for 30 minutes, 13,000 rpm at 4° C. The supernatant was removed from the pellet and stored at −80° C. or processed immediately for gel electrophoresis.
Protein concentration of the samples was quantified using the BCA method (Pierce, Rockford, Ill.) following the manufacturers protocol. Samples were added to SDS-PAGE buffer and boiled for 10 min. before loading onto a 4-12% Bis-Tris pre-cast gel (Invitrogen, Carlsbad, Calif.) for electrophoresis. Proteins were transferred onto PVDF membranes (Bio Rad, Hercules, Calif.) and blocked with AquaBlock™ (New England Biolabs, Ipswich, Mass.) for 1 hour at room temperature (RT). Primary antibody incubation was done in AquaBlock™ with rabbit anti-Met and […] phospho-Met (Tyr1234/1235) (1:1000, Cell Signaling Technology, Danvers, Mass.) overnight at 4° C. Alternating washes were done with PBS and PBST. Secondary antibody (IRDye) (Rockland, Gilbertsville, Pa.) incubations were done in AquaBlock™ for one hour at RT. Blots were imaged using LI-COR Odyssey Infrared Imaging System (LI-COR Biosciences, Lincoln, Nebr.).

[1] = tested on: hippocampal neurons transfected with shMet; test: Spinogenesis after c-Met knock-down with shRNA; format: cell-based, rat; conditions: HGF 10 ng/ml, 48 hours
Description: Neurons were transfected with mRFP-β-actin on day in vitro 6 (DIV6) using LipofectAMINE™ 2000 (Invitrogen) according to the manufacturer's protocol. This protocol yielded the desired 3-5% transfection efficiency thus enabling the visualization of individual neurons. Higher efficiencies obscured the dendritic arbor of individual neurons. Expression of fluorescently tagged actin allowed clear visualization of dendritic spines, as dendritic spines are enriched in actin. On DIV7 the cells were treated with vehicle (H20) or peptides (as described in the text) added to media. On DIV12 the neurons were fixed (4% paraformaldehyde, 3% sucrose, 60 mM PIPES, 25 mM HEPES, 5 mM EGTA, 1 mM MgCl2, pH 7.4) for 20 min at room temperature and mounted. Slides were dried for at least 20 hours at 4° C. and fluorescent images were obtained with Slidebook 4.2 Digital Microscopy Software driving an Olympus IX81 inverted confocal microscope with a 60× oil immersion lens, NA 1.4 and resolution 0.280 μm Dendritic spine density was measured on primary and secondary dendrites at a distance of at least 150 μm from the soma. Five 50 μm long segments of dendrite from at least 10 neurons per data point were analyzed for each data point reported. Each experiment was repeated at least three times using independent culture preparations. Dendrite length was determined using the National Institutes of Health's Image J 1.41o program (NIH, Bethesda, Md.) and the neurite tracing program Neuron J (Meijering, Jacob et al. 2004) Spines were manually counted.
A target sequence for c-Met was designed using RNAi central design program (see the website located at cancan.cshl.edu/). […]. The shRNA was transfected into cells using the lipofectamine method described above. Verification of receptor knockdown was done by creating a c-Met-6-Myc tagged gene product using the Gateway cloning system (Invitrogen). The Met protein coding sequence was cloned from rat whole brain cDNA using primers obtained from Integrated DNA Technologies, Inc. The amplified product was gel purified and a band corresponding to […] band excised and cloned into a PCAGGS-6-Myc destination vector (Gateway).
To irrefutably confirm that the AngIV analogues act via the HGF/c-met system an shRNA for c-Met was employed to knock-down the receptor. Dissociated hippocampal neurons were transfected with mRFP-β-actin and shMet RNA and receptor knock-down was allowed to take place for 48 hours prior to stimulating with 0.5 μg (per well) HGF (10 ng/ml), Dihexa or Nle1-AngIV (both at 10^−12M). Longer exposure appeared to be detrimental or toxic to the neurons. Effective c-Met receptor knock-down was verified by transfecting human embryonic kidney (HEK) cells with (0.1 μg) 6-Myc-tagged c-Met, (0.1 μg) shMet or mRFP-β-actin alone. Successful knockdown was confirmed by immunoblotting for Myc tagged c-met using an anti-Myc antibody (FIG. 19).

hippocampal neurons = test: Whole-cell recordings of mEPSCs in dissociated hippocampal neurons; format: cell-based, rat; design: unit not given beside the values; conditions: 5 days
[2] = saturating doses: HGF 100 ng/ml, Dihexa 10^−10 M
[3] = sub-threshold doses: HGF 50 ng/ml, Dihexa 10^−12 M
[4] = neurons transfected with mRFP-β-actin alone, Dihexa or Nle1-AngIV 10^−12M
[5] = neurons transfected with mRFP-β-actin and shMet, Dihexa or Nle1-AngIV 10^−12 M

Row | Compound | c-Met phosphorylation vs vehicle (aCSF) (c-Met receptor; [2]) | c-Met phosphorylation vs vehicle (aCSF) (c-Met receptor; [3]) | Mean spine numbers per 50 μm dendrite length [1, 4] | Mean spine numbers per 50 μm dendrite length [1, 5] | mEPSC mean frequency (hippocampal neurons; 10^−12 M (each)) | mEPSC mean frequency (hippocampal neurons; HGF 10 ng/ml)
1 | CCCCCC(=O)N[C@@H](Cc1ccc(O)cc1)C(=O)N[C@H](C(=O)NCCCCCC(N)=O)[C@@H](C)CC [Dihexa, N-hexanoic-Tyr-Ile-(6)-aminohexanoic amide] (Hexanoyl-Tyr-Ile-[Ahx]-NH2) | both increased c-Met phosphorylation; also recorded: effectively augment c-Met phosphorylation | not statistically different from control treated slices; also recorded: did not significantly increase c-Met receptor phosphorylation | 21.8 spines per 50 μm dendrite leng | 12.0 spines per 50 μm dendrite leng | 6.75±0.99 and 8.25±0.56 | –
2 | CCCC[C@H](N)C(=O)N[C@@H](Cc1ccc(O)cc1)C(=O)N[C@H](C(=O)N[C@@H](Cc1c[nH]cn1)C(=O)N1CCC[C@H]1C(=O)N[C@@H](Cc1ccccc1)C(=O)O)[C@@H](C)CC [Nle1-AngIV, reference compound] (H-[Nle]YIHPF-OH; N-terminus and C-terminus assumed) | – | – | 20.0 spines per 50 μm dendrite leng | 12.1 spines per 50 μm dendrite leng | – | –
3 | HGF: Hepatocyte growth factor, recombinant, purchased from R&D Systems | both increased c-Met phosphorylation; also recorded: effectively augment c-Met phosphorylation | not statistically different from control treated slices; also recorded: did not significantly increase c-Met receptor phosphorylation | 20.6 spines per 50 μm dendrite leng | 12.4 spines per 50 μm dendrite leng | – | 7.09±0.53 and 9.66±0.20
